Data published in patent US20260250312A1, “ANTIBACTERIAL COMPOUNDS ELIMINATING DORMANT BACTERIAL CELLS” (UNIVERSITÉ D'AIX-MARSEILLE, priority 2022, published 2026).
Converted amounts (≈) assume the structure as drawn. “And” between values parts separate entries of the source, which are not always exact repeats. Equal values may be shown once. Read-outs that look alike come from different tables or passages of the source. Marks after values point to notes of the source that are not given here.

Columns and labels:
[1] = system: Enterococcus faecalis (ATCC29212); assay: Microdilution MIC assay (CLSI-based), E. faecalis; format: cell-based; conditions: 20 hours incubation at 35-37° C., MHB; for MIC: read-out: Minimum inhibitory concentration E. faecalis ATCC29212
Procedure: (§1) The antibacterial activity of compounds was measured using a standard microdilution assay based on the Clinical and Laboratory Standards Institute (CLSI) guidelines. This method was slightly modified. Indeed, assay volumes were increased to 200 μL to improve reproducibility. The chemical compounds to be tested were in the form of salts for biological testing.
(§2) Bacteria tested: Antibacterial activities of the compounds were tested on Staphylococcus aureus (ATCC25923), Enterococcus faecalis (ATCC29212), Escherichia coli ([…]) and Pseudomonas aeruginosa (ATCC27853).
(§3) Preparation of the Preculture: Mueller Hinton Agar plates were inoculated with frozen biological strain in order to obtain separate colonies and the plates were incubated during 24 h at 35-37° C. 3 colonies of similar aspect were picked out, resuspended in 5 mL of fresh Mueller Hinton broth 1× (MHB) and incubated with shaking (160 rpm) at 35-37° C. overnight.
(§4) 0.1 mL of bacteria in exponential phase were suspended in 9.9 mL of MHB (1:100 dilution). 0.1 mL of the 1:100 dilution were dispensed into the wells of microplates containing 0.1 ml of serial compounds dilutions to yield ca. 5×10^5 CFU/mL. In parallel, the stocks solutions of chemical compounds were first diluted in appropriate solvent to a final concentration of 5 mg/mL. 8 μL were dispended into the first wells of the microplates containing 0.1 ml of sterile broth and a 0.5 cascade dilution was performed in MHB from 0.2 mg/mL. One control was made for each strain tested. […] Tests were performed in triplicate.
(§5) Reading of the Results: After incubation, the filter was replaced with a transparent film, and an optical density reading was then taken in an iEMS plate spectrophotometer at 620 nm. Calculation of the minimum inhibitory concentration (MIC) was performed.

[2] = system: Staphylococcus aureus (ATCC25923); assay: Microdilution MIC assay (CLSI-based), S. aureus; format: cell-based; conditions: 20 hours incubation at 35-37° C., MHB; for MIC: read-out: Minimum inhibitory concentration S. aureus ATCC25923
Procedure: as §1, §2, §3, §4, §5

[3] = system: Pseudomonas aeruginosa (ATCC27853); assay: Microdilution MIC assay (CLSI-based), P. aeruginosa; format: cell-based; conditions: 20 hours incubation at 35-37° C., MHB; for MIC: read-out: Minimum inhibitory concentration P. aeruginosa ATCC27853
Procedure: as §1, §2, §3, §4, §5

CHO-K1 cells = assay: WST1 cytotoxicity test; format: cell-based, Chinese hamster; conditions: Cricetulus griseus, CHO-K1, 24 h, WST1, 24 hours at 37° C.; read-out: IC50 CHO
From the text: Cytotoxicity: The test WST1 was used to measure the cytotoxic activity of the compounds of the invention. The test WST1 is a colorimetric test allowing to measure the viability and the degree of cell proliferation. It is based on cleavage of the colorless tetrazolium salts WST-1 (4—[3-(4-iodophenyl)-2-(4-nitrophenyl)-2H-5-tetrazolio]-1,3-benzene disulfonate) with mitochondrial dehydrogenases to the yellow-colored formazan derivative, which may be quantified by spectrophotometry at 420-480 nm. The WST1 test was performed on Chinese hamster ovary (CHO) cells. The CHO-K1 cells (ATCC, USA) were kept in culture in McCoy's 5A medium supplemented with 10% fetal calf serum, 2 mM of L-glutamine and a mixture of penicillin-streptomycin (100 U/ml: 10 μg/mL). The culture was incubated at 37° C. under an atmosphere enriched in CO2 (5%), and subcultured every two days. The cells were transferred into 96-well plates (25,000 cells/mL) in whole McCoy's 5A medium, and maintained for 24 hours at 37° C. under a humid atmosphere enriched in CO2 (5%). Increasing concentrations of tested compounds were added to the wells, each compound was tested in replicates and 8 growth controls containing the cells in the medium alone were included in each series of tests. After 24 hours at 37° C. (5% CO2), the culture medium was removed, the cells were rinsed in phosphate buffer (PBS) and 50 μL of PBS containing 10% of reagent WST1 were added to each well. After 20 minutes of incubation at 37° C., the results were read by spectrophotometry at 450 nm. The results are expressed in dose-response relationships, modeled by nonlinear regression analysis using the TableCurve software.
Cytotoxicity: The same WST1 test as described in Example 2 above was used.

[4] = system: Escherichia coli (ATCC28922); assay: Microdilution MIC assay (CLSI-based), E. coli; format: cell-based; conditions: 20 hours incubation at 35-37° C., MHB; for MIC: read-out: Minimum inhibitory concentration E. coli ATCC28922
Procedure: as §1, §2, §3, §4, §5

[5] = Enterococcus faecalis, ATCC29212, 20 h
[6] = Staphylococcus aureus, ATCC25923, 20 h
[7] = Pseudomonas aeruginosa, ATCC27853, 20 h
[8] = Escherichia coli, ATCC28922, 20 h

Row | SMILES | MIC [1, 5] | MIC [2, 6] | MIC [3, 7] | IC50 (CHO-K1 cells) | MIC [4, 8] | Minimum inhibitory concentration P. aeruginosa ATCC27853 [3] | Minimum inhibitory concentration E. coli ATCC28922 [4] | MIC [4] | Minimum inhibitory concentration E. faecalis ATCC29212 [1] | MIC [1] | Minimum inhibitory concentration S. aureus ATCC25923 [2] | MIC [2] | MIC [3]
1 | COC(=O)[C@@H](NC(=O)CC[C@@H](C)[C@H]1CC[C@H]2[C@@H]3[C@H](O)C[C@@H]4CC(NCCCNCCCCNCCCN)CC[C@]4(C)[C@H]3CC[C@]12C)C(C)C (mixture of isomers) [Compound S001, methyl ((4R)-4-((3S,5S,7R,10S,13R,17R)-3-((3-((4-((3-aminopropyl)amino)butyl)amino)propyl)amino)-7-hydroxy-10,13-dimethylhexadecahydro-1H-cyclopenta[a]phenanthren-17-yl)pentanoyl)valinate] | 25 µM and 16 µg/mL | 3.12 µM and 2 µg/mL | 12.5 µM and 8 µg/mL | 4.41 µM and 3.04 µg/mL | 12.5 µM and 8 µg/mL |  |  |  |  |  |  |  | 
2 | COC(=O)[C@@H](NC(=O)CC[C@@H](C)[C@H]1CC[C@H]2[C@@H]3[C@H](O)C[C@@H]4CC(NCCCN5CCN(CCCN)CC5)CC[C@]4(C)[C@H]3CC[C@]12C)C(C)C (mixture of isomers) [Compound S002, methyl ((4R)-4-((3S,5S,7R,10S,13R,17R)-3-((3-(4-(3-aminopropyl)piperazin-1-yl)propyl)amino)-7-hydroxy-10,13-dimethylhexadecahydro-1H-cyclopenta[a]phenanthren-17-yl)pentanoyl)valinate] | 50 µM and 32 µg/mL | 25 µM and 16 µg/mL | 100 µM and 64 µg/mL | 93.3 µM and 64.2 µg/mL | 100 µM and 64 µg/mL |  |  |  |  |  |  |  | 
3 | COC(=O)[C@@H](NC(=O)CC[C@@H](C)[C@H]1CC[C@H]2[C@@H]3[C@H](O)C[C@@H]4CC(NCCCN(CCCN)CCCN)CC[C@]4(C)[C@H]3CC[C@]12C)C(C)C (mixture of isomers) [Compound S003, methyl ((4R)-4-((3S,5S,7R,10S,13R,17R)-3-((3-(bis(3-aminopropyl)amino)propyl)amino)-7-hydroxy-10,13-dimethylhexadecahydro-1H-cyclopenta[a]phenanthren-17-yl)pentanoyl)valinate] | 50 µM and 32 µg/mL | 6.25 µM and 4 µg/mL | 100 µM and 64 µg/mL | 165 µM and 111 µg/mL | 100 µM and 64 µg/mL |  |  |  |  |  |  |  | 
4 | COC(=O)CNC(=O)CC[C@@H](C)[C@H]1CCC2C3C(CC[C@@]21C)[C@@]1(C)CC[C@H](NCCCNCCCCNCCCN)C[C@H]1C[C@H]3O (stereo partly drawn) [Compound S004, methyl ((4R)-4-((3S,5S,7R,10S,13R,17R)-3-((3-((4-((3-aminopropyl)amino)butyl)amino)propyl)amino)-7-hydroxy-10,13-dimethylhexadecahydro-1H-cyclopenta[a]phenanthren-17-yl)pentanoyl)glycinate] | 50 µM and 32 µg/mL | 6.25 µM and 4 µg/mL |  | 51.7 µM and 33.5 µg/mL |  | >200* μM and >128* μg/mL | 64 mg/L (≈ 98.8 µM) | 100 µM (≈ 64.8 µg/mL) |  |  |  |  | 
5 | COC(=O)[C@H](NC(=O)CC[C@@H](C)[C@H]1CCC2C3C(CC[C@@]21C)[C@@]1(C)CC[C@H](NCCCNCCCN)C[C@H]1C[C@H]3O)C(C)C (stereo partly drawn) [Compound S021, methyl ((4R)-4-((3S,5S,7R,10S,13R,17R)-3-((3-((3-aminopropyl)amino)propyl)amino)-7-hydroxy-10,13-dimethylhexadecahydro-1H-cyclopenta[a]phenanthren-17-yl)pentanoyl)-D-valinate] |  |  |  |  |  | 32 µg/mL (≈ 51.7 µM) | 32 mg/L (≈ 51.7 µM) | 50 µM (≈ 30.9 µg/mL) | 32 mg/L (≈ 51.7 µM) | 50 µM (≈ 30.9 µg/mL) | 8 mg/L (≈ 12.9 µM) | 12.5 µM (≈ 7.74 µg/mL) | 50 µM (≈ 30.9 µg/mL)
6 | COC(=O)CNC(=O)CC[C@@H](C)[C@H]1CCC2C3C(CC[C@@]21C)[C@@]1(C)CC[C@H](NCCCNCCCCNCCCN)C[C@H]1C[C@H]3O (stereo partly drawn) [Compound S027, methyl ((4R)-4-((3S,5S,7R,10S,13R,17R)-3-((3-((4-((3-aminopropyl)amino)butyl)amino)propyl)amino)-7-hydroxy-10,13-dimethylhexadecahydro-1H-cyclopenta[a]phenanthren-17-yl)pentanoyl)glycinate] |  |  |  |  |  | 32 µg/mL (≈ 49.4 µM) | 8 mg/L (≈ 12.3 µM) | 12.5 µM (≈ 8.1 µg/mL) | 16 mg/L (≈ 24.7 µM) | 25 µM (≈ 16.2 µg/mL) | 4 mg/L (≈ 6.17 µM) | 6.25 µM (≈ 4.05 µg/mL) | 50 µM (≈ 32.4 µg/mL)
7 | COC(=O)[C@H](Cc1ccccc1)NC(=O)CC[C@@H](C)[C@H]1CCC2C3C(CC[C@@]21C)[C@@]1(C)CC[C@H](NCCCCCCCCCCN)C[C@H]1C[C@H]3O (stereo partly drawn) [Compound S032, methyl ((4R)-4-((3S,5S,7R,10S,13R,17R)-3-((10-aminodecyl)amino)-7-hydroxy-10,13-dimethylhexadecahydro-1H-cyclopenta[a]phenanthren-17-yl)pentanoyl)-L-phenylalaninate] | 12.5 µM and 8 µg/mL | 50 µM and 32 µg/mL | 200 µM and 128 µg/mL |  | 50 µM and 32 µg/mL |  |  |  |  |  |  |  | 
8 | COC(=O)[C@H](Cc1ccccc1)NC(=O)CC[C@@H](C)[C@H]1CCC2C3CC[C@@H]4C[C@@H](NCCCN(CCCN)CCCN)CC[C@]4(C)C3C[C@H](O)[C@@]21C (stereo partly drawn) [Compound S055, methyl ((4R)-4-((3S,5R,10S,12S,13R,17R)-3-((3-(bis(3-aminopropyl)amino)propyl)amino)-12-hydroxy-10,13-dimethylhexadecahydro-1H-cyclopenta[a]phenanthren-17-yl)pentanoyl)-L-phenylalaninate] | 50 µM and 32 µg/mL | 50 µM and 32 µg/mL | 100 µM and 64 µg/mL |  | 25 µM and 16 µg/mL |  |  |  |  |  |  |  | 
9 | COC(=O)[C@@H](NC(=O)CC[C@@H](C)[C@H]1CCC2C3CC[C@@H]4C[C@@H](NCCCN5CCN(CCCN)CC5)CC[C@]4(C)C3CC[C@@]21C)C(C)C (stereo partly drawn) [Compound S056, methyl ((4R)-4-((3S,5R,10S,13R,17R)-3-((3-(4-(3-aminopropyl)piperazin-1-yl)propyl)amino)-10,13-dimethylhexadecahydro-1H-cyclopenta[a]phenanthren-17-yl)pentanoyl)-L-valinate] | 100 µM and 64 µg/mL | 200 µM and 128 µg/mL | > 200 µM and > 128 µg/mL |  | 200 µM and 128 µg/mL |  |  |  |  |  |  |  | 
